From PubChem BioAssay AID743125 (Broad Institute, 2013) come the findings set out here.

Where “and” joins values, the source holds several entries; their conditions need not be identical. Identical values can stand only once. Calls of active or inactive are those of the source.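 Rule for the calls: active = fitted AC50 no higher than twice the top valid dose tested for that sample; inconclusive = flat curve between -30 and -70% activity, or poor fit; inactive = the rest.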 Where only a bound is given, the exact number is not on record here.

In the first test the target is PglD UDP-4-amino-sugar N-acetyltransferase (Campylobacter jejuni). The experiment in a line: inhibition of C. jejuni PglD N-acetyltransferase – biochemical, DTNB absorbance, dry powder samples, set 5, dose response (AID 743125). Particulars: purified PglD, DTNB absorbance 412 nm, CoA release.
One may read the AC50 as the concentration at which the activity in the assay is half-maximal. With `Cc1c(C(=O)O)sc2nc(/C=C/c3cccc(N)c3)[nH]c(=O)c12`, the AC50 was 16.9 µM. For `COc1cccc(/C=C/c2nc3sc(C(=O)O)c(C)c3c(=O)[nH]2)c1`, the AC50 is 11.5 µM. For `Cc1c(C(=O)O)sc2nc(/C=C/c3ccccn3)[nH]c(=O)c12`, the AC50 is 7.09 µM. Still for that read-out and setting: the result for `Cc1c(C(=O)O)sc2nc(/C=C/c3cccc([N+](=O)[O-])c3)[nH]c(=O)c12` reads > 39 µM (inactive). As to `Cc1c(C(=O)O)sc2nc(/C=C/c3ccc4[nH]ccc4n3)[nH]c(=O)c12`, the AC50 was 7 µM. On the same count and under the same terms, the value for `Cc1c(C(=O)O)sc2nc(/C=C/c3cccc(O)c3)[nH]c(=O)c12` was 27.6 µM and 3.61 µM. On the same count and under the same terms, the value for `Cc1c(C(=O)O)sc2nc(/C=C/c3cccc(N4CCOCC4)n3)[nH]c(=O)c12` was > 20 µM (inactive); that for `Cc1c(C(=O)O)sc2nc(/C=C/c3ccccc3O)[nH]c(=O)c12` was 24.9 µM; that for `Cc1c(C(=O)O)sc2nc(/C=C/c3cccc(=O)[nH]3)[nH]c(=O)c12` was 4.69 µM. The same measure, in the same setting: the result for `Cc1c(C(=O)O)sc2nc(/C=C/c3cccc(OC(F)(F)F)c3)[nH]c(=O)c12` reads > 39 µM (inactive).

Still in this test, the particulars now being: purified PglD, DTNB absorbance 412 nm, CoA release; at 1 µM (top of the series).
Regarding `Cc1c(C(=O)O)sc2nc(/C=C/c3ccc(O)cn3)[nH]c(=O)c12`, the “activity change, negative = inhibition” value was “inactive”.

The test is the same for the next values; noted with them: purified PglD, DTNB absorbance 412 nm, CoA release; at 10 µM (top of the series).
On to `Cc1c(C(=O)O)sc2nc(/C=C/c3cccnc3N)[nH]c(=O)c12`, for which the “activity change, negative = inhibition” value was “inactive”.

Staying with this test, now noted: purified PglD, DTNB absorbance 412 nm, CoA release; at 38 µM (top of the series).
For `Cc1c(C(=O)O)sc2nc(/C=C/c3cccc(N4CCNCC4)c3)[nH]c(=O)c12`, the “activity change, negative = inhibition” value was “inactive”.
